Results taken from article PMC11947619, “Molecular mechanism of Mad2 conformational conversion promoted by the Mad2‐interaction motif of Cdc20” (Protein Science : A Publication of the Protein Society, 2025).
Residues, ends and D or L forms follow the SMILES beside them.

Columns and labels:
Mad2^∆β7/β8 = target: T1, Mad2^∆β7/β8 (Homo sapiens, UniProt Q13257); assay: NMR titration (CSP) of Cdc20^MIM-123-152 into Mad2^∆β7/β8; assay type: binding; details: 25°C
T1 construct: a Mad2 variant with a deleted β7/β8 hairpin (Mad2^∆β7/β8: residues 1–165); His6-DoubleStrep-TEV (N); made in house
Method: (§1) FIGURE 3 Mad2 conversion rates with different Cdc20^MIM peptides. (a) Schematic of human Cdc20. Box1: Box1 motif; C1: C‐box motif; K1: KEN box motif; MIM: Mad2‐interacting motif, residues 123–137; WD40: WD40 domain, residues 182–480; IR: IR tail. (b) Mad2 conversion in the presence of different Cdc20^MIM peptides. Mad2 conversion was traced at 25°C and the changes in the first 30 min are shown. A black tick indicates where conversion is considered complete. NMR data for O‐Mad2^R133A with Cdc20^MIM‐111‐138 shown for comparison are from Fischer et al. ([2022]). (c) The Cdc20^MIM‐138‐152‐binding site was identified by comparing the spectra of C‐Mad2:Cdc20^MIM‐123‐137 with C‐Mad2:Cdc20^MIM‐123‐152 (boxed in b) and analyzing their CSPs (Figure S8e,f). The Cdc20^MIM‐138‐152‐binding site (blue) is mapped onto the structure of C‐Mad2:Cdc20 from the cryo‐EM structure of the APC/C:MCC complex (PDB 6TLJ) (Alfieri et al., [2016], Alfieri et al., [2020]). The O‐Mad2 structural model is superimposed onto the C‐Mad2 structure for comparison. Cdc20 residues 138–152 are in yellow and residues 126–138 are in green. The β7/β8 hairpin in O‐Mad2 (red) blocks both the binding sites for Cdc20 residues 126–138 and residues 138–152. (d) As in c except the β7/β8 hairpin in O‐Mad2 is removed to expose the Cdc20 binding sites. […] (f) Cdc20^MIM‐123‐152 was titrated into Mad2^∆β7/β8 and its binding was analyzed by NMR. […]

C‐Mad2 = assay: NMR chemical shift perturbations of C-Mad2 by Cdc20 residues 138–152; assay type: binding, human; details: inferred from small CSPs, spectra of C-Mad2:Cdc20^MIM-123-152 vs C-Mad2:Cdc20^MIM-123-137, and lack of cryo-EM structural information
Method: as §1

interaction with Mad2^∆β7/β8, in words (Mad2^∆β7/β8; NMR CSPs on addition of peptide)	Kd (Mad2^∆β7/β8; NMR titration, fit of resonance with largest CSP vs ligand concentration, 20 mM HEPES pH 7.0, 100 mM NaCl, 1 mM TCEP, 5% D2O, read-out: KD (estimated)) [µM]	Molecule	association with C-Mad2, in words (C‐Mad2)
weak interaction	> 700	CC[C@H](C)[C@H](NC(=O)[C@H](CCCCN)NC(=O)[C@H](C)NC(=O)[C@H](CCC(=O)O)NC(=O)[C@H](CCC(=O)O)NC(=O)[C@@H](NC(=O)[C@H](CC(=O)O)NC(=O)[C@@H](N)Cc1ccccc1)C(C)C)C(=O)N[C@@H](CC(C)C)C(=O)N[C@@H](CCCNC(=N)N)C(=O)N[C@@H](CC(C)C)C(=O)N[C@@H](CO)C(=O)NCC(=O)N[C@@H](CCCCN)C(=O)N1CCC[C@H]1C(=O)N[C@@H](CCC(N)=O)C(=O)N[C@@H](CC(N)=O)C(=O)N[C@@H](C)C(=O)N1CCC[C@H]1C(=O)N[C@@H](CCC(=O)O)C(=O)NCC(=O)N[C@@H](Cc1ccc(O)cc1)C(=O)N[C@@H](CCC(N)=O)C(=O)N[C@@H](CC(N)=O)C(=O)N[C@@H](CCCNC(=N)N)C(=O)N[C@@H](CC(C)C)C(=O)N[C@@H](CCCCN)C(=O)N[C@H](C(=O)N[C@@H](CC(C)C)C(=O)N[C@@H](Cc1ccc(O)cc1)C(=O)O)C(C)C [Cdc20^MIM‐123‐152] (H-FDVEEAKILRLSGKPQNAPEGYQNRLKVLY-OH; N-terminus and C-terminus assumed)	–
–	–	QNAPEGYQNRLKVLY [Cdc20^MIM‐138‐152, peptide of Cdc20 residues 138–152]	only weakly associated with C‐Mad2
